The term inhibition denotes the drop in the measured response relative to a control, in per cent. Read a high inhibition as strong suppression.

The results in this text go back to the Kinase Knowledgebase extract (Sharma et al. 2016).

For this experiment, the target named is CDK2 (UniProt P24941). The experiment is described as follows: Enzyme Assay. As to conditions: concentration not given here.
For the compound `Cn1cccc1C(=O)Nc1sc2c(c1C(N)=O)CCCC2`, the inhibition was found to be 100%.
The result for `NC(=O)c1c(NC(=O)c2cnccn2)sc2c1CCCC2` reads 100%; that for `CC(C)c1cc(C(N)=O)c(NC(=O)Cc2cccs2)s1`, 100%; that for `CC(C)c1cc(C(N)=O)c(NC(=O)/C=C\c2ccccc2)s1`, 100%.
Compound `Cc1cccc(C(=O)Nc2sc3c(c2C(N)=O)CCCC3)c1` gave an inhibition of 100%.
In turn, `COc1ccc(/C=C\C(=O)Nc2scc(C)c2C(N)=O)cc1OC` came in with an inhibition of 100%.
In turn, `CC(C)c1cc(C(N)=O)c(NC(=O)c2ccc(F)cc2)s1` showed an inhibition of 100%.
Regarding `Cc1sc(NC(=O)c2ccc(OC(C)C)cc2)c(C(N)=O)c1C`, the inhibition came to 100%.
The result for `NC(=O)c1cc(Cc2ccccc2)sc1NC(=O)c1c[nH]c2ccccc12` reads 100%; that for `CC(C)c1cc(C(N)=O)c(NC(=O)c2cccc(F)c2)s1`, 100%; that for `COc1cc(OC)cc(C(=O)Nc2sc(C)c(C)c2C(N)=O)c1`, 100%.
Take `Cc1csc(NC(=O)CCCc2cccs2)c1C(N)=O`: the inhibition was found to be 100%.
`Cc1sc(NC(=O)c2ccc(-n3cccc3)cc2)c(C(N)=O)c1C`: the inhibition is 100%.
`CC1(C)CC(=O)C=C(C(=O)Nc2sc(Cc3ccccc3)cc2C(N)=O)O1`: the inhibition worked out at 100%.
Then `COc1ccc(C(=O)Nc2sc(Cc3ccccc3)cc2C(N)=O)cc1O`, with 100%; and `Cc1cnc(C(=O)Nc2sc(C(C)C)cc2C(N)=O)cn1`, with 100%; and `NC(=O)c1cc(-c2ccccc2)sc1NC(=O)CCc1cccs1`, with 100%.
The result for `COc1cc(OC)c(C(=O)Nc2scc(C)c2C(N)=O)cc1OC` reads 100%; that for `NC(=O)c1cc(Cc2ccccc2)sc1NC(=O)COc1ccc(O)cc1`, 100%; that for `Cc1csc(CC(=O)c2c(-c3ccccc3)noc2C)c1C(N)=O`, 100%.
The result for `NC(=O)c1cc(Cc2ccccc2)sc1NC(=O)/C=C/c1ccccc1O` reads 100%.
For `Cc1sc(NC(=O)c2ccc(Cl)cc2Cl)c(C(N)=O)c1C`, the inhibition was determined as 100%.
The compound `CC(C)c1cc(C(N)=O)c(NC(=O)CCC(=O)N(C)C)s1` gave an inhibition of 100%.
The result for `Cc1ccc2[nH]c(C(=O)Nc3sc(C)c(C)c3C(N)=O)cc2c1` reads 100%; that for `Cc1csc(NC(=O)Cc2c(C)[nH]c3ccccc23)c1C(N)=O`, 100%; that for `Cc1sc(NC(=O)Cc2c[nH]c3ccccc23)c(C(N)=O)c1C`, 100%.
In turn, `Cc1sc(NC(=O)/C=C\c2ccc(N(C)C)cc2)c(C(N)=O)c1C` came in with an inhibition of 100%.
Take `COc1cc(OC)c(C(=O)Nc2sc3c(c2C(N)=O)CCN(C)C3)c(OC)c1`: the inhibition turned out to be 100%.
Compound `CC(c1ccccc1)c1cc(C(N)=O)c(NC(=O)CNC(=O)c2ccccc2)s1` (stereo not given) showed an inhibition of 100%.
In the case of `NC(=O)c1cc(-c2ccccc2)sc1NC(=O)Cc1cccc(F)c1`, the inhibition stood at 100%.
On to `Cc1sc(NC(=O)c2cccc(C(F)(F)F)c2)c(C(N)=O)c1C`, for which the inhibition turned out to be 100%.
As to `CC(=O)NC(=O)C(C)Nc1sc(C(C)C)cc1C(N)=O` (stereo not given), the inhibition was determined as 100%.
`CN(C)CCCC(=O)Nc1sc(Cc2ccccc2)cc1C(N)=O` gave an inhibition of 100%.
Then `NC(=O)c1cc(-c2ccccc2)sc1NC(=O)c1cccc(Cl)c1`, with 100%; and `COc1ccc(C(=O)Nc2sc(Cc3ccccc3)cc2C(N)=O)c(O)c1`, with 100%; and `CCC(N)C(=O)N(C(N)=O)c1sc(C(C)C)cc1C(N)=O` (stereo not given), with 100%.
Then `CC(C)c1cc(C(N)=O)c(NC(=O)C2CCCCCC2)s1`, with 100%.
On to `NC(=O)c1c(NC(=O)c2ccccc2)sc2c1CCCC2`, for which the inhibition was 100%.
Then `COc1cccc2cc(C(=O)Nc3sc(C)c(C)c3C(N)=O)oc12`, with 100%.
In turn, `NC(=O)c1cc(-c2ccccc2)sc1NC(=O)COc1ccccc1` yielded an inhibition of 100%.
